Results as given in the supplement of paper PMC4862054.

Experiments:
BT-474 [1] = conditions: 72 h
Procedure, shortened: (§1)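 EC50 was fitted from dose-response curves and censored at the highest concentration tested. To build those curves, breast cancer cell lines (20 µl suspension) were seeded into 384-well plates containing compound at 5 concentrations in 10-fold steps over a compound-specific 10,000-fold range and incubated for 72 h. Readouts were CellTox Green fluorescence (485/520 nm) for cell death and then CellTiter-Glo luminescence for viability, with each plate normalised to 0.1 % DMSO and a positive kill control.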

MFM-223 [2] = conditions: 72 h
Procedure, shortened: as §1

HCC1143 = assay: normalised response (% of control), CellTiter-Glo; higher = more viable cells (100 = DMSO, 0 = benzethonium chloride kill control); conditions: incubation time: 72 h
Procedure, shortened: (§2)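 Values are normalised signals, each belonging to one concentration of the series. Breast cancer cells (20 µl suspension) were seeded into 384-well plates with compound at 5 concentrations in 10-fold steps over a compound-specific 10,000-fold range and incubated 72 h. Readouts were CellTox Green fluorescence (485/520 nm), then CellTiter-Glo luminescence after 10 min at room temperature, with each plate set to 0.1 % DMSO as 100 and a positive kill control as 0.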

HCC1599 [3] = assay: as above; conditions: incubation time: 72 h
Procedure, shortened: as §2

HDQ-P1 [4] = assay: as above; conditions: incubation time: 72 h
Procedure, shortened: as §2

MCF-10A = assay: as above; conditions: incubation time: 72 h
Procedure, shortened: as §2

MDA-MB-231 [5] = assay: as above; conditions: incubation time: 72 h
Procedure, shortened: as §2

MDA-MB-468 [6] = assay: as above; conditions: incubation time: 72 h
Procedure, shortened: as §2

SK-BR-3 = assay: as above; conditions: incubation time: 72 h
Procedure, shortened: as §2

CAL-85-1 [7] = conditions: 72 h
Procedure, shortened: (§3)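 Each 384-well plate was pre-loaded with compound dissolved in 5 µl medium, received breast cancer cells in 20 µl suspension, and was incubated 72 h. A 2.5 µl addition of CellTiter-Blue for 2 h at 37 °C was followed by a fluorescence read at 560/590 nm. Data were normalised per plate to vehicle and a positive kill control and checked by Z'-factor. EC50 was fitted from the percent-inhibition dose-response curve, censored at the highest concentration, excluding rows with a drug sensitivity score of zero.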

DU-4475 [8] = conditions: 72 h
Procedure, shortened: as §3

HDQ-P1 [9] = conditions: 72 h
Procedure, shortened: as §3

MDA-MB-453 = conditions: 72 h
Procedure, shortened: as §3

BT-474 [10] = conditions: 72 h; remark: listed apart in the source
Procedure, shortened: as §3

MDA-MB-231 [11] = conditions: 72 h
Procedure, shortened: as §3

MDA-MB-468 [12] = conditions: 72 h
Procedure, shortened: as §3

MFM-223 [13] = conditions: 72 h; remark: listed apart in the source
Procedure, shortened: as §3

CAL-85-1 [14] = conditions: 72 h; remark: listed apart in the source
Procedure, shortened: as §1

DU-4475 [15] = conditions: 72 h; remark: listed apart in the source
Procedure, shortened: as §1

HCC1599 [16] = conditions: 72 h
Procedure, shortened: as §1

HCC1937 = conditions: 72 h
Procedure, shortened: as §1

HDQ-P1 [17] = conditions: 72 h; remark: listed apart in the source
Procedure, shortened: as §1

Hs578T = conditions: 72 h
Procedure, shortened: as §1

MDA-MB-231 [18] = conditions: 72 h; remark: listed apart in the source
Procedure, shortened: as §1

| Compound | normalised response (HCC1143) [%] | normalised response (HCC1599 [3]) [%] | normalised response (HDQ-P1 [4]) [%] | normalised response (MCF-10A) [%] | normalised response (MDA-MB-231 [5]) [%] | normalised response (MDA-MB-468 [6]) [%] | normalised response (SK-BR-3) [%] | other results |
| --- | --- | --- | --- | --- | --- | --- | --- | --- |
| N#CC[C@H](C1CCCC1)n1cc(-c2ncnc3[nH]ccc23)cn1 [Ruxolitinib] | – | – | – | – | – | – | – | EC50, CellTiter-Glo (BT-474 [1]): > 10 µM; EC50, CellTiter-Glo (MFM-223 [2]): > 10 µM |
| N#CC[C@H](C1CCCC1)n1cc(-c2ncnc3[nH]ccc23)cn1 [Ruxolitinib] (1000 nM) | 92.9 | 100 | 98.2 | 80.6 | 104 | 90.8 | 90.2 | – |
| COc1cccc2c1C(=O)c1c(O)c3c(c(O)c1C2=O)C[C@@](O)(C(=O)CO)C[C@@H]3O[C@H]1C[C@H](N)[C@H](O)[C@H](C)O1 [Doxorubicin] (100 nM) | 105 | 115 | 98.7 | 106 | 95.9 | 71.4 | 92.2 | – |
| C[C@]1(c2nc3c(C(N)=O)cccc3[nH]2)CCCN1 [Veliparib] (1000 nM) | 105 | 104 | 102 | 91.3 | 103 | 104 | 101 | – |
| CN1CCC(COc2cnc(-c3cccc(Cn4nc(-c5cccc(C#N)c5)ccc4=O)c3)nc2)CC1 | – | – | – | – | – | – | – | EC50, CellTiter-Blue viability (CAL-85-1 [7]): 5.15 µM; EC50, CellTiter-Blue viability (DU-4475 [8]): 5.89 µM; EC50, CellTiter-Blue viability (HDQ-P1 [9]): 4.97 µM; EC50, CellTiter-Blue viability (MDA-MB-453): 3.64 µM; EC50, CellTiter-Blue viability (BT-474 [10]): 4.45 µM; EC50, CellTiter-Blue viability (MDA-MB-231 [11]): 2.06 µM; EC50, CellTiter-Blue viability (MDA-MB-468 [12]): 3.04 µM; EC50, CellTiter-Blue viability (MFM-223 [13]): 6.27 µM |
| S=c1[nH]cnc2nc[nH]c12 [Mercaptopurine] | – | – | – | – | – | – | – | EC50, CellTiter-Glo (BT-474 [1]): 3.92 µM; EC50, CellTiter-Glo (CAL-85-1 [14]): 4.41 µM; EC50, CellTiter-Glo (DU-4475 [15]): 1.82 µM; EC50, CellTiter-Glo (HCC1599 [16]): 3.82 µM; EC50, CellTiter-Glo (HCC1937): 0.833 µM; EC50, CellTiter-Glo (HDQ-P1 [17]): 0.569 µM; EC50, CellTiter-Glo (Hs578T): 0.985 µM; EC50, CellTiter-Glo (MDA-MB-231 [18]): 0.906 µM; EC50, CellTiter-Blue viability (MDA-MB-468 [12]): 0.387 µM |
| C=CCNC1=C2C[C@@H](C)C[C@H](OC)[C@H](O)[C@@H](C)/C=C(\C)[C@H](OC(N)=O)[C@@H](OC)/C=C\C=C(/C)C(=O)NC(=CC1=O)C2=O [Tanespimycin] (1000 nM) | 36 | 57.8 | 22.8 | 14.6 | 23.5 | 42.3 | 38.5 | – |
